From patent US20060252045A1, “Methods and materials for identifying agents which modulate bone remodeling and agents identified thereby” (priority 2003, published 2006)

How the values were obtained:
[1] = tested on: Wnt/β-catenin target gene expression in MC3T3 cells; test: Flexercell mechanical load gene expression in MC3T3 cells (real-time PCR); settings: for load induced Frizzled 2, eNOS, Fos and Jun gene expression: MC3T3, 1-60 μM added 1 hr prior to load; for load induced Connexin 43, Cyclin D1, Wnt 10b, SFRP1 and COX-2 gene expression: MC3T3, 1-60 μM added 1 hr prior to load (3,400 με, 5 hrs)
Protocol: For these experiments, the mouse MC3T3 osteoblastic cells were cultured in alpha minimum essential media (αMEM) (Invitrogen) supplemented with 10% heat inactivated FBS, 1% glutamax (Invitrogen) and 1% penicillin/streptomycin (Invitrogen). […] For those samples being pretreated in serum free media the cells were washed twice each with 2 mL of basal αMEM media prior to adding the BSA containing media. […] The cells were then subjected to mechanical distortion equivalent to 3,400 με (2 Hz, 7200 cycles/hr), for 5 hrs using a FX-3000 Flexercell® strain unit (Flexcell International Corp). RNA was then harvested (using the Qiagen Rneasy mini kit) immediately or 24 hr post loading from both the mechanical strained samples as well as the non-strained controls. All data shown in the examples that utilize the FlexerCell were derived from the RNA immediately harvested following loading.
Real-time PCR was then performed for the indicated genes using mouse gene specific primers and probes as discussed above.
RNA was isolated immediately after application of load and processed for TaqMan® analysis. The transcripts analyzed were COX-2, eNOS, Connexin 43, SFRP1, Wnt10B, cyclin D1, Frizzled 2, WISP2, Fos and Jun (FIG. 15).
Here, Wnt 3A conditioned media was obtained from mouse L-cells transfected with murine Wnt 3A. The MC3T3 cells were seeded and cultured for 3 days in growth media until confluence, as described above. The media for the MC3T3 cells was then changed to BSA containing media, and the cells were incubated for 24 hours. The BSA-containing media was then removed and replaced with fresh BSA media at a final volume of 1 mL containing various amounts of L-cell Wnt 3A conditioned media or control conditioned media from untransfected L-cells. The amount of Wnt 3A conditioned media varied from 0.5, 2.0, 5.0, 10.0, 20.0 and 100 μL in a final volume of 1 ml serum free BSA media. The MC3T3 cells were then subjected to 3,400 με at 2 Hz, 7200 cycles/hr for 5 hours as described in the prior examples.

mouse calvariae = test: Mouse calvarial model: calvarial thickness (histomorphometry); format: in vivo; settings: 20 μg/kg/day
Protocol: Following sacrifice by CO2 narcosis, calvariae were removed intact, soft tissues were gently dissected, and the bones were fixed in 70% ethanol for 24 h for further processing and analysis. Calvariae were then bisected perpendicular to the sagittal suture through the central portion of the parietal bones parallel to the lambdoidal and coronal sutures. The anterior portion of the calvaria was used for paraffin sections, and the posterior portion of the calvaria was used for frozen sections. Four to five 5 μm-thick representative, non-consecutive step sections were cut. The paraffin sections are routinely stained with hematoxylin and eosin (H&E) for the measurement of calvarial thickness. The frozen sections were used for alkaline phosphatase detection. To facilitate histomorphometric measurements, a standard length of 2 mm of each section from the edge of the sagittal suture to the muscle insertion at the lateral border of each bone was used. All measurements were made using the R&M Biometrics Inc. Bioquant Image Analysis System.

[2] = tested on: alkaline phosphatase activity in calvarial osteoblasts; test: Mouse calvarial model: alkaline phosphatase histochemical staining; format: in vivo; settings: local administration, 7 days, vs vehicle
Protocol: Following sacrifice by CO2 narcosis, calvariae were removed intact, soft tissues were gently dissected, and the bones were fixed in 70% ethanol for 24 h for further processing and analysis. Calvariae were then bisected perpendicular to the sagittal suture through the central portion of the parietal bones parallel to the lambdoidal and coronal sutures. The anterior portion of the calvaria was used for paraffin sections, and the posterior portion of the calvaria was used for frozen sections. Four to five 5 μm-thick representative, non-consecutive step sections were cut. […] The frozen sections were used for alkaline phosphatase detection. To facilitate histomorphometric measurements, a standard length of 2 mm of each section from the edge of the sagittal suture to the muscle insertion at the lateral border of each bone was used. All measurements were made using the R&M Biometrics Inc. Bioquant Image Analysis System.
The activity of Alkaline Phosphatase (ALPase) was assessed with a histochemical stain using a Vector Red Alkaline Phosphatase Substrate Kit (Vector Laboratories, Inc. Burlingame, Calif.) in 6 μm frozen sections of the mouse parietal bone after fixing in 70% Ethanol.

β-catenin = test: Mouse calvarial model: β-catenin immunohistochemistry; format: in vivo; settings: local injection
Protocol: Following sacrifice by CO2 narcosis, calvariae were removed intact, soft tissues were gently dissected, and the bones were fixed in 70% ethanol for 24 h for further processing and analysis. Calvariae were then bisected perpendicular to the sagittal suture through the central portion of the parietal bones parallel to the lambdoidal and coronal sutures. The anterior portion of the calvaria was used for paraffin sections, and the posterior portion of the calvaria was used for frozen sections. Four to five 5 μm-thick representative, non-consecutive step sections were cut.
After fixation, the anterior portion of the calvaria was decalcified in Surgipath Decalcifier II (Richmond, Ill.) for 7-8 h and then dehydrated in graded alcohol. Four to five 5 μm-thick representative, non-consecutive coronal step paraffin sections were cut. […] The binding of the antibody to the epitope was visualized (1 μg/1 mL) using an avidin-linked AP system (Vector Laboratories, Burlingame, Calif.). Controls comprised samples with the avidin-AP in the absence of primary antibody.

[3] = tested on: Dkk1 suppressed Wnt1/Wnt 3A TCF-signal in U2OS cells; test: Release of Dkk1 mediated inhibition of TCF-signal in U2OS cells; format: cell-based, human; settings: Dkk1 0.1 μg/well co-transfected with Wnt1 or Wnt 3A
Protocol: The final readout is activation of Dkk1 mediated suppressed TCF-signal. […] The experiment represented in FIG. 2 involved U2OS (ATCC) bone cells and is based on the endogenous expression of LRP5/6 receptors. […] 10 μL of the 15× stock was added per well along with appropriately diluted vehicle (i.e., DMSO) control.

## Wnt 3A
[1]; MC3T3, Wnt 3A conditioned media, no load
  cyclin D1, connexin 43, SFRP1, Wnt 10B, WISP2, COX-2, FOS and JUN gene expression, alone: no effect

## CS(=O)(=O)Nc1ccc([N+](=O)[O-])cc1OC1CCCCC1 [NS-398, N-(2-cyclohexyloxy-4-nitrophenyl)methanesulfonamide]
[1]
  load induced Frizzled 2, eNOS, Fos and Jun gene expression: no effect
  load induced Connexin 43, Cyclin D1, Wnt 10b, SFRP1 and COX-2 gene expression: block the induction
[1]; listed as COX-2 inhibitor
  load induced Connexin 43, Cyclin D1, Wnt 10b, SFRP1 and COX-2 gene expression: does not induce transcription
  load induced Frizzled 2, eNOS, Fos and Jun gene expression: independent of COX-2 activity

## Human PTH (1-34): Human parathyroid hormone (1-34), positive control in the calvarial model (SVSEIQLMHNLGKHLNSMERVEWLRKKLQDVHNF; Parathyroid hormone; UniProt P01270 32-65, looked up, fragment)
Mouse calvariae
  effect on calvarial thickness (positive control): significant increase in calvarial thickness
[2]
  alkaline phosphatase (ALPase) activity in osteoblasts: markedly enhanced
β-catenin
  β-catenin expression in osteoblastic cells lining the periosteum: no effect

B1: Dkk1: Wnt antagonist co-transfected into U2OS cells; inhibits LRP5 activity (protein, UniProt O94907 32-266, looked up)
Dickkopf-related protein 1: TLNSVLNSNAIKNLPPPLGGAAGHPGSAVSAAPGILYPGGNKYQTIDNYQPYPCAEDEECGTDEYCASPTRGGDAGVQICLACRKRRKRCMRHAMCCPGNYCKNGICVSSDQNHFRGEIEETITESFGNDHSTLDGYSRRTTLSSKMYHTKGQEGSVCLRSSDCASGLCCARHFWSKICKPVLKEGQVCTKHRRKGSHGLEIFQRCYCGEGLSCRIQKDHHQASNSSRLHTCQRH
[3]
  effect on Wnt1/Wnt 3A TCF-activity: suppressed almost completely
